This assay addresses T1, human PAD4 (Homo sapiens, UniProt Q9UM07).
T1 construct: human PAD4 (NM_012387), A2-P663, was PCR amplified; His-SUMO (N, cleaved yes); made in house; host or cells: E. coli BL21(DE3)
In words: In vitro PAD4 BAEE biochemical assay. The following applies: BAEE substrate 3 mM, 5 nM PAD4, 2 mM calcium chloride; geometric mean of multiple experiments. In a few lines:
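Ammonia produced by BAEE deimination (3 mM substrate, 2 h, 25 °C) was read as fluorescent isoindole after o-phthalaldehyde/DTT derivatization, ex 405 nm/em 535 nm. Human PAD4 at 5 nM final, 2 mM calcium, pH 7.6 MOPS; compound preincubated 30 min. IC50s, normalized to BB-Cl-Amidine and DMSO controls, were geometric-mean averaged.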

As a reminder, the IC50 is the concentration needed to halve the response being measured.

T1 sequence (Q9UM07 2-663): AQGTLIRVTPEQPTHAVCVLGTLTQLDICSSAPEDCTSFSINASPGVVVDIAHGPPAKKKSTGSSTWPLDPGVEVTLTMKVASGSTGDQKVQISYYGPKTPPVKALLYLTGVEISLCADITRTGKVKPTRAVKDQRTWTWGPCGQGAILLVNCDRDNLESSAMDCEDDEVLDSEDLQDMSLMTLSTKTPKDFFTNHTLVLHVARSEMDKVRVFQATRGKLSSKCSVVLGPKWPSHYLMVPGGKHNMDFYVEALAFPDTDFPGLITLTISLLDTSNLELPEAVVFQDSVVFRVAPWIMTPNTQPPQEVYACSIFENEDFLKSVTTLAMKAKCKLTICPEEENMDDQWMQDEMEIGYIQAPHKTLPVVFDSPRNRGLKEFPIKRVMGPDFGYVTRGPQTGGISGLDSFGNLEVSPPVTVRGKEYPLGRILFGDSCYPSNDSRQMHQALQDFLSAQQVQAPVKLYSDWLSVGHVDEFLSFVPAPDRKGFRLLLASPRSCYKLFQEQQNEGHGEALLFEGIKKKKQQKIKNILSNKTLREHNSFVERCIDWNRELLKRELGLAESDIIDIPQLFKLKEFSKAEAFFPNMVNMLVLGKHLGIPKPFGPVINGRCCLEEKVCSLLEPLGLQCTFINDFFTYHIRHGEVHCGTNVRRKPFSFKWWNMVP

`COc1cc(C(=O)N2CC[C@@H](OC)[C@@H](N)C2)cc2nc(-c3cc4ccc5nc4n3CCCCCc3nn(C)nc3C(=O)N[C@@H]5C)n(C)c12` [Example 570, (2~{R})-16-[5-[(3~{S}, 4~{R})-3-amino-4-methoxy-piperidine-1-carbonyl]-7-methoxy-1-methyl-benzimidazol-2-yl]-2,7-dimethyl-3,6,7,8,15,21-hexazatetracyclo[13.5.2.0^ {5,9}.0^{18,22}] docosa-1(21),5,8,16,18(22), 19-hexaen-4-one]: the half-inhibitory concentration (IC50) amounted to 94 nM.

With `CO[C@@H]1CCCCC(F)(F)Cn2c(-c3nc4cc(C(=O)N[C@H]5CNCC[C@@H]5F)c(F)cc4n3C)cc3ccc(nc32)[C@@H](C)NC1=O` [Example 623, 2-[(8~{R},11~{R})-3,3-difluoro-8-methoxy-11-methyl-9-oxo-1,10,19-triazatricyclo[10.5.2.0^ {15,18}]nonadeca-12(19),13,15(18),16-tetraen-17-yl]-6-fluoro-~{N}-[(3~{S}, 4~{S})-4-fluoro-3-piperidyl]-1-methyl-benzimidazole-5-carboxamide], the half-inhibitory concentration (IC50) was determined as 47 nM. The result for `CO[C@@H]1CCN(C(=O)c2cc3c4c(c2)nc(-c2cc5ccc6nc5n2CCCCC[C@@H]2C[C@H]2C(=O)N[C@@H]6C)n4CCO3)C[C@@H]1N` [Example 729, (2~{R},5~{R},7~{R})-14-[6-[(3~{S},4~{R})-3-amino-4-methoxy-piperidine-1-carbonyl]-9-oxa-1,3-diazatricyclo [6.3.1.0^{4,12}]dodeca-2,4,6,8(12)-tetraen-2-yl]-2-methyl-3,13,19-triazatetracyclo[11.5.2.0^ {5,7}.0^{16,20}] icosa-1(19),14,16(20),17-tetraen-4-one] reads 307 nM; that for `C[C@H]1NC(=O)c2ccc(Cl)nc2CC[C@@H]2C[C@@H]2Cn2c(-c3nc4cc(C(=O)N5C[C@H](N)[C@@H]6CC[C@H]5C6)cc(F)c4n3C3CC3)cc3ccc1nc32` [Example 709, (3~{S),5~{R},16~{R})-22-[5-[(1~{S},4~{R},5~ {R})-4-amino-2-azabicyclo[3.2.1]octane-2-carbonyl]-1-cyclopropyl-7-fluoro-benzimidazol-2-yl]-10-chloro-16-methyl-1,9,15,24-tetrazapentacyclo[15.5.2.0^ {3,5}.0^{8,13}.0^{20,23}] tetracosa-8(13),9,11, 17(24),18,20(23),21-heptaen-14-one], 25 nM; that for `C[C@H]1NC(=O)[C@@H]2C[C@H]2CCCCCn2c(-c3nc4cc(C(=O)N5CC6(CCCNC6)C5)c(F)cc4n3C3CC3)cc3ccc1nc32` [Example 569, (2~{R},5~{R},7~{R})-14-[1-cyclopropyl-5-(2,8-diazaspiro[3.5]nonane-2-carbonyl)-6-fluoro-benzimidazol-2-yl]-2-methyl-3,13,19-triazatetracyclo [11.5.2.0^{5,7}.0^ {16,20}]icosa-1(19),14, 16(20),17-tetraen-4-one], 109 nM. The same measure for `COc1cc(C(=O)N2CC[C@@H](OC)[C@@H](N)C2)cc2nc(-c3cc4ccc5nc4n3CCCCCc3ccc(Cl)nc3C(=O)N[C@@H]5C)n(C)c12` [Example 780, (2~{R})-17-[5-[(3~{S},4~{R})-3-amino-4-methoxy-piperidine-1-carbonyl]-7-methoxy-1-methyl-benzimidazol-2-yl]-7-chloro-2-methyl-3,6,16,22-tetrazatetracyclo[14.5.2.0^ {5,10).0^{19,23}]tricosa-1(21),5(10),6,8,17,19,22-heptaen-4-one]: 53 nM. Take `COc1cc(C(=O)N2CC[C@@H](OC)[C@@H](N)C2)cc2nc(-c3cc4ccc5nc4n3CCCCCc3cc(Cl)cnc3C(=O)N[C@@H]5C)n(C)c12` [Example 783, (2~{R})-17-[5-[(3~{S},4~{R})-3-amino-4-methoxy-piperidine-1-carbonyl]-7-methoxy-1-methyl-benzimidazol-2-yl]-8-chloro-2-methyl-3,6,16,22-tetrazatetracyclo[14.5.2.0^ {5,10}.0^{19,23}] tricosa-1(21),5(10),6,8,17,19, 22-heptaen-4-one]: the IC50 was 109 nM.
